Drawing on patent US5496847A, “Aminomethyl-benzodioxane and benzopyran serotonergic agents” (Bristol-Myers Squibb Co., priority 1995, dated 1996), this text covers IC50 for twelve molecules.

A word on the IC50: it is the concentration needed to halve the response being measured.

Where a name gives a salt, the structure may show the parent alone.

In this assay the target is T1, 5-HT1A receptor.
T1 construct: from tissue
Briefly: In vitro binding to the 5-HT1A receptor (method of Peroutka, Brain Research 344, 167 (1985), minor modifications). The settings on record: in vitro binding to 5-HT1A receptor; class symbols. The method, then:
In vitro IC50 test values for binding to the 5-HT1A receptor were determined for representative compounds of Formula I by the method of S. J. Peroutka, Brain Research 344, 167 (1985); with only minor modifications. Test IC50 values lower than 100 nM are considered to reflect activity at the 5-HT1A receptor.

T1 sequence (F6Q2H9 1-422): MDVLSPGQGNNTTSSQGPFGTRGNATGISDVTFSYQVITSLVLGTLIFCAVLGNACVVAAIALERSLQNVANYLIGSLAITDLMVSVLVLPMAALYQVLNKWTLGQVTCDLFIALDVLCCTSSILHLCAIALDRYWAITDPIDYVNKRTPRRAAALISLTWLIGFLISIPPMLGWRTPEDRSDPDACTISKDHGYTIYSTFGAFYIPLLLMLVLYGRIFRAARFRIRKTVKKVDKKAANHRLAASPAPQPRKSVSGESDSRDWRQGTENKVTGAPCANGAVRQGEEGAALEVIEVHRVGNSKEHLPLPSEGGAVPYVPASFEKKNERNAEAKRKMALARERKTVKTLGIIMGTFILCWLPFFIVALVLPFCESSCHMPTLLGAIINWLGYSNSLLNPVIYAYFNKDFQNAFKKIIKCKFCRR

Take `CCN(CC1COc2ccccc2O1)C1CCC(O)(c2ccc3c(c2)OCO3)CC1` (mixture of isomers) [Example 7, (±)-Cis-N-Ethyl-N,[4-(1,3-benzodioxol-5-yl)-4-hydroxycyclohexyl]-1,4-benzodioxane-2-methanamine fumarate]: the concentration for half-maximal inhibition (IC50) lay in the range of 5 to 25 nM.
Next, `OC1(c2ccc3c(c2)OCO3)CCC(NCC2CCc3ccccc3O2)CC1` (racemic) [Example 11, (±)-Cis-4-[[(3,4-dihydro-2H-1-benzopyran-2-yl)methyl]amino]-1-(1,3-benzodioxol-5-yl)cyclohexanol]: less than 1 nM.
Then `COC1(c2ccc3c(c2)OCO3)CCC(NCC2COc3ccccc3O2)CC1` (racemic) [Example 10, (±)-Trans-N-[4-(1,3-benzodioxol-5-yl)-4-methoxycyclohexyl]-1,4-benzodioxane-2-methanamine hemifumarate], with 5 to 25 nM; and `COC1(c2ccc3c(c2)OCO3)CCC(NCC2COc3ccccc3O2)CC1` (stereo not drawn) [Example 2, Cis-N-[4-(1,3-Benzodioxol-5-yl)-4-methoxycyclohexyl]-2S-1,4-benzodioxane-2-methanamine hemifumarate], with less than 1 nM.
Then `COC1(c2ccc3c(c2)OCO3)CCC(NCC2COc3ccccc3O2)CC1` (single isomer, unassigned; (-)) [Example 9], with less than 1 nM; and `COC1(c2ccc3c(c2)OCO3)CCC(NCC2COc3ccccc3O2)CC1` (racemic) [Example 6, (±)-Cis-N-[4-(1,3-Benzodioxol-5-yl)-4-methoxycyclohexyl]-1,4-benzodioxane-2-methanamine hemifumarate], with 1 to 5 nM.
`OC1(c2ccc(F)c(F)c2)CCC(NCC2COc3ccccc3O2)CC1` (racemic) [Example 13, (±)-Cis-4-[(1,4-Benzodioxan-2-yl)methylamino]-1-(3,4-difluorophenyl)cyclohexanol] showed an IC50 of less than 1 nM.
Next, `COC1(c2ccc3c(c2)OCO3)CCC(N(C)CC2COc3ccccc3O2)CC1` (mixture of isomers) [Example 8, (±) -Cis-N-Methyl-N-[4-(1,3-benzodioxol-5-yl)-4-methoxycyclohexyl]-1,4,-benzodioxane-2-methanamine fumarate]: 5 to 25 nM.
`C1=C(c2ccc3c(c2)OCO3)CCC(NC[C@H]2COc3ccccc3O2)C1` (stereo partly drawn) [Example 12, N-[4-(1,3-Benzodioxol-5-yl)-3-cyclohexen-1-yl]-2S-1,4-benzodioxane-2-methanamine] gave an IC50 of 5 to 25 nM.
Next, `COC1(c2ccc3c(c2)OCCO3)CCC(NCC2COc3ccccc3O2)CC1` (racemic) [Example 4, (±)-Cis-N-[4-(1,4-benzodioxan-6-yl)-4-methoxycyclohexyl]-1,4-benzodioxane-2-methanamine hemifumarate]: 1 to 5 nM; `OC1(c2ccc3c(c2)OCO3)CCC(NCC2COc3ccccc3O2)CC1` (stereo not drawn) [Example 1, Cis-4-[(2S-1,4-Benzodioxan-2-yl)methylamino]-1-(1,3-benzodioxol-5-yl)cyclohexanol]: less than 1 nM.
Next, `CCOC1(c2ccc3c(c2)OCO3)CCC(NCC2COc3ccccc3O2)CC1` (racemic) [Example 5, (±)-Cis-N-[4-(1,3-benzodioxol-5-yl)-4-ethoxycyclohexyl]-1,4-benzodioxane-2-methanamine fumarate]: 1 to 5 nM.
